Where two headings read alike, the source gives them in different places. A value given as a limit tells only on which side of the number the result lay.

Series [1] concerns ptosis observed one hour after reserpine. As to the kind of experiment: Test B: antagonism of reserpine-induced ptosis in mice. Format: in vivo. Particulars: Mus musculus, 1 h, po, antagonism of ptosis one hour after reserpine 2 mg/kg intravenous, read-out: Test B ED 50. How it is done:
Test B: Antagonism with respect to the ptosis observed one hour after an intravenous injection (2 mg/kg) of reserpine given to mice, following the protocol described by C.

The test system of series [2] is generalized trembling caused by dl-5-hydroxytryptophane. Briefly: Test A: potentiation in mice of generalized trembling caused by dl-5-hydroxytryptophane. Particulars: Mus musculus, po, read-out: Test A ED 50. The class given is in vivo. The procedure:
Test A: Potentiation in mice of generalized trembling caused by an interperitoneal injection (200 mg/kg) of dl-5-hydroxytryptophane, following the protocol described by C. GOURET and G. RAYNAUD in J. Pharmacol. (Paris), (1974), 5, 231.

A short description of a further series: Toxicity LD50 mouse. Particulars: in vivo, po, read-out: Toxicity LD 50.
[3] abbreviates: mice, potentiation of trembling by dl-5-hydroxytryptophane 200 mg/kg interperitoneal.

With `COCC1CN(c2ccc(OCc3cccc(I)c3)cc2)C(=O)O1` (stereo not drawn) [compound 198], the ED50 was 34 mg/kg in series [1] and 40 mg/kg in series [2] (setting [3]). Further, in “Toxicity LD50 mouse”, the LD50 is > 1000 mg/kg.
Taken in the same sequence, the figures for `N#Cc1cc(COc2ccc(N3CC(CO)OC3=S)cc2)ccc1F` (stereo not drawn) [compound 209] were 6.7 mg/kg, 7 mg/kg and 1000 mg/kg.
Regarding `COCC1CN(c2ccc(OCc3cc(C#N)cc([N+](=O)[O-])c3)cc2)C(=O)O1` (stereo not drawn) [compound 161], the figures for the ED50 in series [1] and in series [2] (setting [3]) were 0.36 mg/kg and 1.1 mg/kg, respectively. Further, the LD50 in “Toxicity LD50 mouse” is > 2000 mg/kg.
Taken in the same sequence, the figures for `COCC1CN(c2ccc(OCCCCCl)cc2)C(=O)O1` (stereo not drawn) [compound 234] were 4 mg/kg, 0.6 mg/kg and > 1000 mg/kg.
Taken in the same sequence, the figures for `COCC1CN(c2ccc(OCc3cccc([N+](=O)[O-])c3)cc2)C(=O)O1` (stereo not drawn) [compound 61, para (meta-nitrobenzyloxy) phenyl-3 methoxymethyl-5 oxazolidinone-2] were 0.1 mg/kg, 0.08 mg/kg and 1500 mg/kg.
In the same order, the values of `CCC(=O)OCC1CN(c2ccc(OCc3cccc(C#N)c3)cc2)C(=O)O1` (stereo not drawn) [compound 132] are 2 mg/kg, 3 mg/kg and > 2000 mg/kg.
Take `COCC1CN(c2ccc(-c3ccccc3)cc2)C(=O)O1` (stereo not drawn) [compound 195]: the ED50 is 2.2 mg/kg in series [1] and 1.2 mg/kg in series [2] (setting [3]). Moreover, the LD50 in the series “Toxicity LD50 mouse” was > 1000 mg/kg.
In the same order, the values of `COCC1CN(c2ccc(OCC3CCCC3)cc2)C(=O)O1` (stereo not drawn) [compound 49] are 0.4 mg/kg, 0.5 mg/kg and 2000 mg/kg.
Turning to `CCCOCC1CN(c2ccc(OCc3cccc([N+](=O)[O-])c3)cc2)C(=S)O1` (stereo not drawn) [compound 210], the ED50 in series [1] was 7.4 mg/kg; in series [2] (setting [3]), 26 mg/kg. In “Toxicity LD50 mouse”, the LD50 was > 1000 mg/kg.
Turning to `OCC1CCN(c2ccc(OCc3ccccc3)cc2)C1` (stereo not drawn) [compound 220, N-parabenzyloxyphenyl hydroxymethyl-3 pyrrolidine], the ED50 in series [1] and in series [2] (setting [3]) was 50 mg/kg in each case. Moreover, in “Toxicity LD50 mouse”, the LD50 is > 1000 mg/kg.
As for `COCC1CN(c2ccc(OCc3cccc(Br)c3)cc2)C(=O)O1` (stereo not drawn) [compound 197], the figures for the ED50 in series [1] and in series [2] (setting [3]) were 6.7 mg/kg and 2.2 mg/kg, respectively. Moreover, in the series “Toxicity LD50 mouse”, the LD50 was > 1000 mg/kg.
In the same order, the values of `COCC1CN(c2ccc(N(C)C)cc2)C(=O)O1` (stereo not drawn) [compound 180] are 7.8 mg/kg, 7.4 mg/kg and 1000 mg/kg.
In the same order, the values of `COCC1CN(c2ccc(OCC3CCCCC3)cc2)C(=S)O1` (stereo not drawn) [compound 114] are 2 mg/kg, 3.7 mg/kg and > 2000 mg/kg.
For `CC=CCOc1ccc(N2CC(COC)OC2=O)cc1` (stereo not drawn) [compound 179], the ED50 in series [1] was 7 mg/kg; in series [2], 4.5 mg/kg. For the same compound, the LD50 in “Toxicity LD50 mouse” is > 1000 mg/kg.
Regarding `COCC1CN(c2ccc(OCc3cccc([N+](=O)[O-])c3)cc2)C(=S)O1` (stereo not drawn) [compound 118], the ED50 was determined as 0.1 mg/kg in series [1] and 1 mg/kg in series [2] (setting [3]). For the same compound, in the series “Toxicity LD50 mouse”, the LD50 is > 2000 mg/kg.
In the same order, the values of `CCOCC1CN(c2ccc(OCc3cccc([N+](=O)[O-])c3)cc2)C(=S)O1` (stereo not drawn) [compound 216] are 3 mg/kg, 5 mg/kg and 1000 mg/kg.
In the same order, the values of `COCC1CN(c2ccc(OCc3ccc([N+](=O)[O-])c(Cl)c3)cc2)C(=O)O1` (stereo not drawn) [compound 168] are 16 mg/kg, 25 mg/kg and > 1000 mg/kg.
In the same order, the values of `COCC1CN(c2ccc(OCc3cccc([N+](=O)[O-])c3)cc2)C(=O)S1` (stereo not drawn) [compound 219, para (metanitro) benzyloxyphenyl-3 methoxymethyl-5 thiazolidinone-2] are 13.5 mg/kg, 7 mg/kg and > 1000 mg/kg.
Regarding `COCC1CN(c2ccc(OCC3=CCCC3)cc2)C(=O)O1` (stereo not drawn) [compound 184], the results for the ED50 in series [1] and in series [2] (setting [3]) were 0.72 mg/kg and 1.2 mg/kg, respectively. Moreover, the LD50 in the series “Toxicity LD50 mouse” was > 1000 mg/kg.
In the case of `CC(C)NCC1CN(c2ccc(OCc3cccc([N+](=O)[O-])c3)cc2)C(=O)O1` (stereo not drawn) [compound 201], the ED50 in series [1] was 6.8 mg/kg; in series [2] (setting [3]) it was 7.4 mg/kg. Also, the LD50 in the series “Toxicity LD50 mouse” was > 1000 mg/kg.
Taken in the same sequence, the figures for `COCC1CN(c2ccc(C#Cc3ccccc3)cc2)C(=O)O1` (stereo not drawn) [compound 189] were 0.9 mg/kg, 2.6 mg/kg and > 1000 mg/kg.
In the same order, the values of `COCC1CN(c2ccc(OCC3(C)CCCC3)cc2)C(=O)O1` (stereo not drawn) [compound 186] are 3 mg/kg, 3 mg/kg and > 1000 mg/kg.
In the same order, the values of `CNCC1CN(c2ccc(OCC3CCCC3)cc2)C(=O)O1` (stereo not drawn) [compound 77] are 6.2 mg/kg, 2.5 mg/kg and > 2000 mg/kg.
As for `CC(=O)OCC1CN(c2ccc(OCCC#N)cc2)C(=O)O1` (stereo not drawn) [compound 3], the ED50 in series [1] is 2.7 mg/kg; in series [2] (setting [3]), 3.1 mg/kg. Moreover, in the series “Toxicity LD50 mouse”, the LD50 was > 2000 mg/kg.
For `COCC1CN(c2ccc(/C=C/c3ccccc3)cc2)C(=O)O1` (stereo not drawn) [compound 187], the ED50 in series [1] came to 1.3 mg/kg; in series [2] (setting [3]), 2.7 mg/kg. The LD50 in the series “Toxicity LD50 mouse” is > 1000 mg/kg.
Taken in the same sequence, the figures for `COCC1CN(c2ccc(OCc3cccnc3)cc2)C(=S)O1` (stereo not drawn) [compound 213] were 2 mg/kg, 3 mg/kg and 1000 mg/kg.
In the case of `COCC1CN(c2ccc(/C=C/c3cccc([N+](=O)[O-])c3)cc2)C(=O)O1` (stereo not drawn) [compound 191], the ED50 in series [1] turned out to be 0.38 mg/kg; in series [2] (setting [3]), 0.4 mg/kg. In addition, in “Toxicity LD50 mouse”, the LD50 was determined as 1000 mg/kg.
Taken in the same sequence, the figures for `CCC(=O)OCC1CN(c2ccc(OCc3ccccc3)cc2)C(=O)O1` (stereo not drawn) [compound 24] were 12.5 mg/kg, 9 mg/kg and > 2000 mg/kg.
Taken in the same sequence, the figures for `N#Cc1cccc(COc2ccc(N3CC(CN)OC3=O)cc2)c1` (stereo not drawn) [compound 205] were 3 mg/kg, 10.1 mg/kg and > 1000 mg/kg.
Taken in the same sequence, the figures for `CC(=O)OCC1CN(c2ccc(OCC3CCCC3)cc2)C(=O)O1` (stereo not drawn) [compound 13] were 2 mg/kg, 3 mg/kg and > 2000 mg/kg.
For the compound `COCC1CN(c2ccc(OCc3ccc(F)c([N+](=O)[O-])c3)cc2)C(=O)O1` (stereo not drawn) [compound 169], the ED50 in series [1] turned out to be 4.1 mg/kg; in series [2] (setting [3]), 3 mg/kg. For the same compound, the LD50 in “Toxicity LD50 mouse” was > 1000 mg/kg.
In the same order, the values of `CCNCC1CN(c2ccc(OCc3cccc([N+](=O)[O-])c3)cc2)C(=O)O1` (stereo not drawn) [compound 203] are 1.4 mg/kg, 5.2 mg/kg and 1000 mg/kg.
Take `COCC1CN(c2ccc(OCCN3CCOCC3)cc2)C(=O)O1` (stereo not drawn) [compound 181]: the ED50 in series [1] worked out at 9 mg/kg; in series [2] (setting [3]) it was 4 mg/kg. The LD50 in the series “Toxicity LD50 mouse” was > 1000 mg/kg.
Taken in the same sequence, the figures for `COCC1CN(c2ccc(OCCC(C)C)cc2)C(=S)O1` (stereo not drawn) [compound 214] were 1.8 mg/kg, 0.84 mg/kg and 1000 mg/kg.
In the same order, the values of `N#CCCCOc1ccc(N2CC(CO)OC2=S)cc1` (stereo not drawn) [compound 212] are 12 mg/kg, 4.3 mg/kg and 1000 mg/kg.
Taken in the same sequence, the figures for `O=[N+]([O-])c1cccc(COc2ccc(N3CC(CO)OC3=S)cc2)c1` (stereo not drawn) [compound 94] were 1 mg/kg, 1.5 mg/kg and > 2000 mg/kg.
In the case of `CC(C)CCOc1ccc(N2CC(CO)OC2=S)cc1` (stereo not drawn) [compound 91], the ED50 was 5.5 mg/kg in series [1] and 4.5 mg/kg in series [2]. The LD50 in “Toxicity LD50 mouse” is > 2000 mg/kg.

(Values after US4348393A, “N-Aryl oxazolidinones, oxazolidinethiones, pyrrolidinones, pyrrolidines and thiazolidinones” (Delalande S.A., priority 1978, dated 1982).)
